{"source": "patent US20190369111A1", "about": "“MOLECULAR KINETICS EVALUATION METHOD AND SCREENING METHOD” (Tokyo University of Science Foundation, priority 2016, published 2019)", "key": {"[1]": {"molecular_target": "T1, catalytic subunit β1 of a proteasome (caspase-like activity) (Homo sapiens, UniProt P28072)", "T1 construct": "purchased Bioscience", "conditions": "reported by Kaiser, M. et al., 2004; patent's result consistent; cited from earlier work"}, "endogenous DHFR protein": {"molecular_target": "T2, endogenous DHFR protein (Homo sapiens, UniProt P00374)", "T2 construct": "degradation (knockdown) of an endogenous DHFR protein in HeLa cells; endogenous in cells; host or cells: HeLa cells", "T2 sequence (P00374 1-187)": "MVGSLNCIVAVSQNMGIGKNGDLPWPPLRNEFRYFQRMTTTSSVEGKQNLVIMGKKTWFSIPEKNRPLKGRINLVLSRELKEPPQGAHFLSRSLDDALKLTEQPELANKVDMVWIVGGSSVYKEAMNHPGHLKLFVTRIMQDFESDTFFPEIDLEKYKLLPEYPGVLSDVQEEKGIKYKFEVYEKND", "test": "Degradation of endogenous DHFR protein in HeLa cells, Western blot analysis", "assay_type": "cell-based", "conditions": "50 μM, 100 μM or 200 μM, 16 hours after addition"}, "DHFR protein": {"molecular_target": "T3, DHFR protein (Mus musculus, UniProt P00375)", "T3 construct": "administered intraperitoneally to C57BL/6J wild-type mice; from tissue; host or cells: C57BL/6J wild-type mice: liver, kidneys, heart", "T3 sequence (P00375 1-187)": "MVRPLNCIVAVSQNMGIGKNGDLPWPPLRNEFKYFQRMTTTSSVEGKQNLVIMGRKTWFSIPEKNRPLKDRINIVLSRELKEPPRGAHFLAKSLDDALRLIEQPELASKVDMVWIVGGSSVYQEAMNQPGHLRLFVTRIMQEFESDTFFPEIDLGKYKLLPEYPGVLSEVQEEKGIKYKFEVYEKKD", "test": "Degradation of DHFR protein in each tissue of mouse after administration, Western blot analysis", "assay_type": "in vivo", "experimental": "MTX-CANDDY_MLN was dissolved in DMSO immediately before administration, and then dissolved in corn oil (Code No. 25606-55, Nacalai Tesque) so that the concentration of DMSO was 10 vol %, and then a dose of 50 mg/kg body weight or 100 mg/kg body weight was administered intraperitoneally to C57BL/6J wild-type mice (7 weeks old, male) (CLEA Japan, Inc.) (n=3). […] As a control, an injection carrier (corn oil containing 10 vol % DMSO) was used. The mice were kept under an environment of ad libitum access to food and water. The mice were dissected under deep anesthesia by Somnopentyl (Kyoritsu Seiyaku Corporation) 24 hours after administration. Abdominal section was performed, and then the liver, kidneys, and heart were sequentially extracted and flash frozen in liquid nitrogen. Each tissue frozen in liquid nitrogen was stored in a deep freezer at −80° C.\nThe frozen tissues (0.04 g) were each frozen and triturated, and then 980 μL of 1×TKM tissue lysis buffer (50 mM triethanolamine (pH 7.8), 50 mM KCl, 5 mM MgCl2, 0.25 M sucrose, 1 mM PMSF, protein inhibitors cocktail-EDTA free (Code No. 03969-21, Nacalai Tesque, Inc.), 1 mM DTT, and 5 μL/mL recombinant RNase inhibitor (40 U/μL, Cat No. 2313A, Lot No. K8402DA, TAKARA Bio)) were added, and dissolved by rotation for 15 minutes (1 rpm, 25° C.). Then, the resultant product was subjected to centrifugation (at 3000 rpm×15 minutes, 4° C.), and the supernatants (each tissue extract) were collected. The concentration of proteins in each tissue extract was quantified with a spectrophotometer using each tissue extract that had been diluted 20 times using DEPC-treated water.\nEach tissue extract collected was subjected to Western blot analysis. An SDS-PAGE gel was prepared using TGX™ FastCast™ Acrylamide Kit, 12% (Bio-Rad). Electrophoresis samples were prepared in a 6×SDS-PAGE sample buffer (62.5 mM Tris-HCl pH 6.8, 2% SDS, 5% 2-mercaptoethanol, 10% glycerol, 0.25% BPB), and placed on a heat block at 95° C. for 5 minutes. The electrophoresis samples prepared were applied at 50 μg/well for detection of GAPDH, and applied at 100 μg/well for other detection. Electrophoresis was performed at 160 V for 60 minutes (electrophoresis buffer; 195 mM glycine, 25 mM Tris).\nAfter electrophoresis, proteins were transferred to a PVDF membrane (Immobion™-P, Millipore) under conditions of 100 V and 1.5 hours using a tank-type blotting device and a transfer buffer (25 mM Tris-HCl, 195 mM glycine, 0.01% SDS, 15% methanol). […] Subsequently, the membrane was treated with a chemiluminescence reagent Immobilon™ Western (Millipore), and then chemiluminescence was detected using a lumino image analyzer LAS-3000 (FUJIFILM Corporation). Detected bands were quantified with an image processing software ImageJ (NIH)."}, "20S proteasome": {"molecular_target": "T4, 20S proteasome (Homo sapiens, UniProt P28072+P28074+Q99436)", "T4 construct": "purchased Bioscience", "test": "Affinity with a proteasome evaluated from 20S proteasome assay kit", "assay_type": "biochemical", "conditions": "suggested from concentration dependent inhibitory activity against β1, β2, β5", "experimental": "In Reference Example 2, the proteasome inhibitory activity of TMP-CANDDY_DMT and the affinity of TMP-CANDDY_DMT with a proteasome were evaluated. As a positive control, MG-132 as a proteasome inhibitor was used.\n(§1) For evaluation, 20S Proteasome StressXpress™ Assay Kit Gold (Bioscience) was used. AMC was measured by using Multi-Detection Microplate Reader (Synergy HT, BIO-TEK). The AMC was produced by cleaving the C-terminus of an AMC-binding proteasome fluorescence substrate specific to β subunits of a 20S proteasome, including β5 (chymotrypsin-like activity), β2 (trypsin-like activity), and β1 (caspase-like activity). The measuring wavelengths were 360 nm for excitation light (Ex.), and 460 nm for fluorescence (Em.).\n(§2) In Reference Example 11, as in Reference Example 4, a proteasome inhibitory activity of TMP-CANDDY_ALLN and an affinity of TMP-CANDDY_ALLN with a proteasome were evaluated."}, "[2]": {"molecular_target": "T5, catalytic subunit β5 of the proteasome (chymotrypsin-like activity) (Homo sapiens, UniProt P28074)", "T5 construct": "purchased Bioscience", "test": "20S proteasome inhibitory activity, catalytic subunit β5", "assay_type": "biochemical", "conditions": "AMC fluorescence substrate", "experimental": "as §1, §2"}, "[3]": {"molecular_target": "T6, catalytic subunit β2 of the proteasome (trypsin-like activity) (Homo sapiens, UniProt Q99436)", "T6 construct": "purchased Bioscience", "test": "20S proteasome inhibitory activity, catalytic subunit β2", "assay_type": "biochemical", "conditions": "AMC fluorescence substrate", "experimental": "as §1, §2"}, "[4]": {"molecular_target": "T1, catalytic subunit β1 of a proteasome (caspase-like activity)", "test": "20S proteasome inhibitory activity, catalytic subunit β1", "assay_type": "biochemical", "conditions": "AMC fluorescence substrate", "experimental": "as §1, §2"}, "ecDHFR protein [5]": {"molecular_target": "T7, ecDHFR protein (Escherichia coli, UniProt P0ABQ4)", "T7 construct": "expressed in transfected cells; host or cells: HeLa cells, transient transfection with pMIR-DsRed-IRES-ecDHFR-HA-GFP", "assay_type": "cell-based, human", "conditions": "HeLa cells"}, "ecDHFR protein [6]": {"molecular_target": "T7, ecDHFR protein", "assay_type": "cell-based, human", "conditions": "HeLa cells, 24 hours after addition, vs control (DMSO)"}}, "note": "Non-standard residues stand in square brackets, D forms with d. Residues, ends and D or L forms follow the SMILES beside them. Nle = CCCC[C@H](N)C(=O)O", "data": [{"smiles": "CCCC[C@@H](C=O)NC(=O)[C@H](CC(C)C)NC(=O)[C@H](CC(C)C)NC(C)=O", "note": "[ALLN, Calpain inhibitor I] (Ac-Leu-Leu-[Nle]-aldehyde)", "values": [{"measurement": "inhibition of β1 (caspase-like activity)", "setting": "[1]", "value": "not inhibited"}]}, {"smiles": "CC(C)C[C@H](NC(=O)CNC(=O)c1cc(Cl)ccc1Cl)C(=O)NCCCCCCNC(=O)CC[C@H](NC(=O)c1ccc(N(C)Cc2cnc3nc(N)nc(N)c3n2)cc1)C(=O)O", "note": "[MTX-CANDDY_MLN]", "values": [{"measurement": "amount of endogenous DHFR protein", "setting": "endogenous DHFR protein", "value": "decreased in a concentration dependent manner"}, {"measurement": "amount of DHFR protein in heart", "setting": "DHFR protein; intraperitoneal 50 or 100 mg/kg body weight, 24 hours after administration, heart", "value": "reduction in the amount of the DHFR protein was not found"}, {"measurement": "amount of DHFR protein in kidneys", "setting": "DHFR protein; intraperitoneal 50 or 100 mg/kg body weight, 24 hours after administration, kidneys", "value": "reduced in a concentration dependent manner"}, {"measurement": "amount of DHFR protein in liver", "setting": "DHFR protein; intraperitoneal 50 or 100 mg/kg body weight, 24 hours after administration, liver", "value": "reduced in a concentration dependent manner"}, {"measurement": "transfer property to tissues (molecular kinetics)", "setting": "DHFR protein; suggested from DHFR degradation in tissues", "value": "showed a higher transfer property in the liver and kidneys, as compared with the heart"}]}, {"smiles": "COc1nc(NCCCCCCNC(=O)COc2c(OC)cc(Cc3cnc(N)nc3N)cc2OC)nc(OC)n1", "note": "[TMP-CANDDY_DMT]", "values": [{"measurement": "affinity with a proteasome", "setting": "20S proteasome", "value": "moderate affinity with a proteasome"}, {"measurement": "proteasome inhibitory activity against β5 (chymotrypsin-like activity)", "setting": "[2]", "value": "significantly lower proteasome inhibitory activity as compared with MG-132"}, {"measurement": "proteasome inhibitory activity against β2 (trypsin-like activity)", "setting": "[3]", "value": "significantly lower proteasome inhibitory activity as compared with MG-132"}, {"measurement": "proteasome inhibitory activity against β1 (caspase-like activity)", "setting": "[4]", "value": "significantly lower proteasome inhibitory activity as compared with MG-132"}, {"measurement": "amount of ecDHFR protein", "setting": "ecDHFR protein [5]; 24 hours after addition, cycloheximide 50 μg/mL added after 12 hours", "value": "the amount of the ecDHFR protein was reduced"}, {"measurement": "degradation of ecDHFR protein when bortezomib is added together", "setting": "ecDHFR protein [5]; both TMP-CANDDY_DMT and bortezomib added, compared with TMP-CANDDY_DMT alone", "value": "degradation of the ecDHFR protein was inhibited"}, {"measurement": "degradation (knockdown) of ecDHFR protein (shift of GFP/DsRed ratio graph)", "setting": "ecDHFR protein [6]", "value": "degradation of the ecDHFR protein was induced"}]}]}
